From patent US8993604B2, “Treatment and prevention of dengue virus infections” (Siga Technologies, Inc., priority 2009, dated 2015)
Where two headings read alike, the source gives them in different places.

Columns and labels:
[1] = tested on: all four serotypes of dengue; assay: Yield assays against each of the four serotypes of dengue; assay type: cell-based, dengue virus; details: yield assays at several drug concentrations
Protocol: Initially, the chemical structures of the hit compounds were examined for chemical tractability. […] Hits that passed this medicinal chemistry filter were evaluated for their potency. Compound potency was determined by evaluating inhibitory activity across a broad range of concentrations. Nonlinear regression was used to generate best-fit inhibition curves and to calculate the 50% effective concentration (EC50). The selectivity or specificity of a given compound is typically expressed as a ratio of its cytotoxicity to its biological effect. A cell proliferation assay is used to calculate a 50% cytotoxicity concentration (CC50); the ratio of this value to the EC50 is referred to as the therapeutic index (T.I.=CC50/EC50). Two types of assays have been used to determine cytotoxicity, both of which are standard methods for quantitating the reductase activity produced in metabolically active cells (22). […] Verification that these compounds act against each of the four serotypes of dengue was done with yield assays carried out at several drug concentrations, and the titer determined for each.
Compounds that were active in the primary screen were tested for activity in viral yield assays. […] The EC50 was calculated through ExcelFit. Activities against other serotypes of dengue virus were determined in a similar way.

[2] = tested on: Dengue-2 (Strain New Guinea C); assay: Viral yield assay in Vero cells; assay type: cell-based; details: Dengue virus; Vero cells, MOI 0.1, harvested 48 hours post infection; read-out: Activity (anti-dengue 2 viral activity, EC50 class)
Protocol: Compounds that were active in the primary screen were tested for activity in viral yield assays. […] Vero cells in 12-well plates were infected with dengue-2 virus at a multiplicity of infection (MOI) of 0.1, treated with compound (or DMSO as a control), incubated at 37° C., harvested 48 hours post infection and titered on Vero cells as described above. The EC50 was calculated through ExcelFit. Activities against other serotypes of dengue virus were determined in a similar way.

dengue [3] = details: mouse model; cited from earlier work
dengue [4] = details: cited from earlier work

Compound | EC50 [2] | further results
COc1ccc(C(=O)Nc2ccc(-c3nc4ccc(C)cc4s3)cc2)c(OC)c1 [Compound 3, 2,4-Dimethoxy-N-[4-(6-methyl-benzothiazol-2-yl)-phenyl]-benzamide] | < 1 µM | activity against all four serotypes of dengue [1]: activity against all four serotypes of dengue
NC(=O)c1ncn([C@@H]2O[C@H](CO)[C@@H](O)[C@H]2O)n1 [ribavirin] |  | protection against dengue (dengue [3]): did not show protection; adverse effects induced (dengue [4]; animal models of refs. 14, 16, model not specified): induced anemia and thrombocytosis; protection against dengue (dengue [4]; rhesus monkey model): did not show protection
O=C(Nc1ccc(O)c(-c2nc3ccccc3s2)c1)c1cccc(F)c1 [Compound 62, N-(3-Benzothiazol-2-yl-hydroxy-phenyl)-3-fluoro-benzamide] | > 25 µM | 
Cc1ccc(-c2nc3ccccc3s2)cc1NC(=O)c1cccc(I)c1 [Compound 43, N-(5-Benzothiazol-2-yl-2-methyl-phenyl)-3-iodo-benzamide] | > 25 µM | 
Cc1c(NC(=O)c2ccc([N+](=O)[O-])cc2Cl)cccc1-c1nc2ccccc2s1 [Compound 73, N-(3-Benzothiazol-2-yl-2-methyl-phenyl)-2-chloro-4-nitro-benzamide] | > 25 µM | 
COc1ccc(C(=O)Nc2cccc(-c3nc4ccccc4s3)c2C)cc1[N+](=O)O [Compound 64, N-(3-Benzothiazol-2-yl-2-methyl-phenyl)-4-methoxy-3-nitro-benzamide] | > 25 µM | 
Cc1ccccc1C(=O)Nc1ccc(-c2nc3ccccc3s2)c(O)c1 [Compound 23, N-(4-Benzothiazol-2-yl-3-hydroxy-phenyl)-2-methyl-benzamide] | 10 to 25 µM | 
Cc1ccc(C(=O)Nc2cccc(-c3nc4ccccc4s3)c2)cc1 [Compound 89, N-(3-Benzothiazol-2-yl-phenyl)-4-methyl-benzamide] | > 25 µM | 
Cc1c(NC(=O)c2cc([N+](=O)[O-])ccc2Cl)cccc1-c1nc2ccccc2s1 [Compound 63, N-(3-Benzothiazol-2-yl-2-methyl-phenyl)-2-chloro-5-nitro-benzamide] | > 25 µM | 
O=C(Nc1ccc(-c2nc3ccccc3s2)c(Cl)c1)c1ccccc1[N+](=O)[O-] [Compound 124, N-(4-Benzothiazol-2-yl-3-chloro-phenyl)-2-nitro-benzamide] | > 25 µM | 
CCCC(=O)Nc1ccc(C(=O)Nc2ccc(-c3nc4ccc(C)cc4s3)cc2)cc1 [Compound 37, 4-Butyrylamino-N-[4-(6-methyl-benzothiazol-2-yl)-phenyl]-benzamide] | 10 to 25 µM | 
O=C(Nc1ccccc1-c1nc2ccccc2s1)c1ccc(-c2ccccc2)cc1 [Compound 105, Biphenyl-4-carboxylic acid (2-benzothiazol-2-yl-phenyl)-amide] | > 25 µM | 
CCOC(=O)N1CCN(S(=O)(=O)c2ccc(C(=O)Nc3cccc(-c4nc5ccccc5s4)c3)cc2)CC1 [Compound 46, 4-[4-(3-Benzothiazol-2-yl-phenylcarbamoyl)-benzenesulfonyl]-piperazine-1-carboxylic acid ethyl ester] | > 25 µM | 
CCOC(=O)N1CCN(S(=O)(=O)c2ccc(C(=O)Nc3ccccc3-c3nc4ccccc4s3)cc2)CC1 [Compound 47, 4-[4-(2-Benzothiazol-2-yl-phenylcarbamoyl)-benzenesulfonyl]-piperazine-1-carboxylic acid ethyl ester] | > 25 µM | 
Cc1ccc(C(=O)Nc2cc(-c3nc4ccccc4s3)ccc2C)c(C)c1 [Compound 117, N-(5-Benzothiazol-2-yl-2-methyl-phenyl)-2,4-dimethyl-benzamide] | > 25 µM | 
COc1ccccc1C(=O)Nc1cc(-c2nc3ccccc3s2)ccc1C [Compound 52, N-(5-Benzothiazol-2-yl-2-methyl-phenyl)-2-methoxy-benzamide] | > 25 µM | 
Cc1ccccc1C(=O)Nc1ccc(O)c(-c2nc3ccccc3s2)c1 [Compound 55, N-(3-Benzothiazol-2-yl-4-hydroxy-phenyl)-2-methyl-benzamide] | > 25 µM | 
Cc1ccc(-c2nc3ccccc3s2)cc1NC(=O)c1ccc2c(c1)OCCO2 [Compound 75, 2,3-Dihydro-benzo[1,4]dioxine-6-carboxylic acid (5-benzothiazol-2-yl-2-methyl-phenyl)-amide] | > 25 µM | 
COc1c(Cl)cc(Cl)cc1C(=O)Nc1ccccc1-c1nc2ccccc2s1 [Compound 100, N-(2-Benzothiazol-2-yl-phenyl)-3,5-dichloro-2-methoxy-benzamide] | > 25 µM | 
O=C(Nc1ccccc1-c1nc2ccccc2s1)c1cc(Br)ccc1Cl [Compound 102, N-(2-Benzothiazol-2-yl-phenyl)-5-bromo-2-chloro-benzamide] | > 25 µM | 
O=C(Nc1cccc(-c2nc3ccccc3s2)c1)c1ccc(S(=O)(=O)N2CCCC2)cc1 [Compound 20, N-(3-Benzothiazol-2-yl-phenyl)-4-(pyrrolidine-1-sulfonyl)-benzamide] | 10 to 25 µM | 
Cc1ccc(C(=O)Nc2cccc(-c3nc4ccccc4s3)c2)c(Cl)c1 [Compound 33, N-(3-Benzothiazol-2-yl-phenyl)-2-chloro-4-methyl-benzamide] | 10 to 25 µM | 
N#Cc1ccc(C(=O)Nc2ccc(Cl)c(-c3nc4ccccc4s3)c2)c(F)c1 [Compound 82, N-(3-Benzothiazol-2-yl-4-chloro-phenyl)-4-cyano-2-fluoro-benzamide] | > 25 µM | 
CN(C)c1ccccc1C(=O)Nc1ccc(-c2nc3ccccc3s2)cc1 [Compound 10, N-(4-Benzothiazol-2-yl-phenyl)-2-dimethylamino-benzamide] | < 1 µM | 
Cc1c(C(=O)Nc2ccccc2-c2nc3ccccc3s2)cccc1[N+](=O)[O-] [Compound 114, N-(2-Benzothiazol-2-yl-phenyl)-2-methyl-3-nitro-benzamide] | > 25 µM | 
O=C(Nc1ccccc1-c1nc2ccccc2s1)c1ccccc1Br [Compound 116, N-(2-Benzothiazol-2-yl-phenyl)-2-bromo-benzamide] | > 25 µM | 
O=C(Nc1cc(-c2nc3ccccc3s2)ccc1Cl)c1ccccc1[N+](=O)[O-] [Compound 67, N-(5-Benzothiazol-2-yl-2-chloro-phenyl)-2-nitro-benzamide] | > 25 µM | 
O=C(Nc1ccc(-c2nc3ccccc3s2)c(O)c1)c1ccc(F)cc1 [Compound 22, N-(4-Benzothiazol-2-yl-3-hydroxy-phenyl)-4-fluoro-benzamide] | 10 to 25 µM | 
O=C(Nc1ccc(O)c(-c2nc3ccccc3s2)c1)c1ccccc1F [Compound 57, N-(3-Benzothiazol-2-yl-4-hydroxy-phenyl)-2-fluoro-benzamide] | > 25 µM | 
COc1cc(OC)cc(C(=O)Nc2ccccc2-c2nc3ccccc3s2)c1 [Compound 104, N-(2-Benzothiazol-2-yl-phenyl)-3,5-dimethoxy-benzamide] | > 25 µM | 
